Entries after “also recorded” stand apart in the source; their conditions may differ.
What was measured:
[1] = system: oedema of the ear of the mouse induced by topical application of arachidonic acid; experiment: oedema of the ear of the mouse induced by topical application of arachidonic acid (in vivo topical anti-inflammatory activity); conditions: for % Inhibition of the oedema After 1 h: 1 h after arachidonic acid; for % Inhibition of the oedema After 1 h / % Inhibition of the oedema After 2 h: each active 2% in acetone solution, topical, 25 μl twice daily for 4 days plus last application 2 h before arachidonic acid, vs other ear pretreated with acetone only; for % Inhibition of the oedema After 2 h: 2 h after arachidonic acid; for anti-inflammatory activity (in words): in vivo topical application
Source text: The test used to evaluate this activity is that of oedema of the ear of the mouse induced by topical application of arachidonic acid. According to this model, the topical application of arachidonic acid to the ear causes an inflammation which is characterized by the rapid development of an oedema, the latter becoming maximum at the end of one hour after application. The oedematous response is then quantified by measuring the thickness of the ear.
The exact operating protocol is the following: the mice are first of all pretreated with the active product(s) to be evaluated, two topical applications per day (2×25 μl; one application in the morning and the other in the evening) being carried out on one of their ears of an acetone solution containing, at a given concentration, this or these active principle(s); this pretreatment is carried out for four consecutive days. Then, on the fifth day, the mice receive a last application (25 μl) of the solution containing the active principle(s) to be tested, which takes place two hours before the application to the ear thus pretreated of the arachidonic acid intended to produce the oedema (25 μl of a THF/methanol solution containing 4 weight % of arachidonic acid). The oedematous response is then quantified by measuring the thickness of the ear 1 hour and 2 hours after application of the arachidonic acid solution.

[2] = system: oedema of the ear of the mouse induced by topical application of arachidonic acid; conditions: conventional agents, general statement on the model; cited from earlier work

Row | SMILES | % Inhibition of the oedema After 1 h [1] | % Inhibition of the oedema After 2 h [1] | anti-inflammatory activity (in words) [1] | inhibition in this model (in words) [2]
1 | CCC[C@@H]1C[C@@H](C(=O)N[C@@H]([C@H]2O[C@H](SC)[C@H](O)[C@@H](O)[C@H]2O)[C@H](C)Cl)N(C)C1 [Clindamycin] | (ni) | (ni) | does not, by itself, have any significant activity; also recorded: no, or substantially no, anti-inflammatory activity | 
2 | Cc1ncc([N+](=O)[O-])n1CCO [Metronidazole, 2-methyl-5-nitroimidazole-1-ethanol] | 20% | 36% | good anti-inflammatory activity after in vivo topical application | 
3 | COc1ccc2c(c1)c(CC(=O)O)c(C)n2C(=O)c1ccc(Cl)cc1 [indomethacin] |  |  |  | good inhibitors in this model
4 | COc1ccc2cc([C@H](C)C(=O)O)ccc2c1 [naproxen] |  |  |  | good inhibitors in this model
5 | CCCCC1C(=O)N(c2ccccc2)N(c2ccccc2)C1=O [phenylbutazone] |  |  |  | good inhibitors in this model
